Laboratory results from ChEMBL document CHEMBL3044902, “Effect of Optically Active Ethyl 2-Phthalimidooxypropionate on the Growth of Cress, Lepidium sativum” (1999).

Columns and labels:
Format in all cases: functional
Lepidium sativum [1] = test: Inhibition of root growth of Lepidium sativum at 1 ppm relative to untreated control; details: read-out: GI
Lepidium sativum [2] = test: Inhibition of root growth of Lepidium sativum at 100 ppm relative to untreated control; details: read-out: GI
Lepidium sativum [3] = test: Inhibition of germination of Lepidium sativum at 100 ppm relative to untreated control
Lepidium sativum [4] = test: Inhibition of germination of Lepidium sativum at 10 ppm relative to untreated control
Lepidium sativum [5] = test: Inhibition of root growth of Lepidium sativum at 0.38 microM relative to untreated control; details: read-out: GI
Lepidium sativum [6] = test: Inhibition of root growth of Lepidium sativum at 1.1 microM relative to untreated control; details: read-out: GI
Lepidium sativum [7] = test: Inhibition of root growth of Lepidium sativum at 3.8 microM relative to untreated control; details: read-out: GI

SMILES | inhibition of growth at 1 ppm (Lepidium sativum [1]) | inhibition of growth at 100 ppm (Lepidium sativum [2]) | inhibition at 100 ppm (Lepidium sativum [3]) | inhibition at 10 ppm (Lepidium sativum [4]) | inhibition of growth at 0.38 µM (Lepidium sativum [5]) | inhibition of growth at 1.1 µM (Lepidium sativum [6]) | inhibition of growth at 3.8 µM (Lepidium sativum [7])
CCOC(=O)CON1C(=O)c2ccccc2C1=O | 0% | 100% | 100% | 0% |  |  | 
CCOC(=O)[C@@H](C)ON1C(=O)c2ccccc2C1=O |  |  |  |  | 0% | 5% | 14%
CCCCCOC(=O)C(C)ON1C(=O)c2ccccc2C1=O (configuration not stated) | 64% |  |  |  |  |  | 
CCOC(=O)C(C)ON1C(=O)c2ccccc2C1=O (configuration not stated) | 68% | 100% | 100% | 0% |  |  | 
CCOC(=O)[C@H](C)ON1C(=O)c2ccccc2C1=O |  |  |  |  | 35% | 49% | 72%
CC(ON1C(=O)c2ccccc2C1=O)C(=O)OC(C)(C)C (configuration not stated) | 1% |  |  |  |  |  | 
CCC(C)OC(=O)C(C)ON1C(=O)c2ccccc2C1=O (configuration not stated) | 42% |  |  |  |  |  | 
CCCOC(=O)C(C)ON1C(=O)c2ccccc2C1=O (configuration not stated) | 64% |  |  |  |  |  | 
CC(C)OC(=O)C(C)ON1C(=O)c2ccccc2C1=O (configuration not stated) | 51% |  |  |  |  |  | 
CCCCOC(=O)C(C)ON1C(=O)c2ccccc2C1=O (configuration not stated) | 59% |  |  |  |  |  | 
CCOC(=O)C(Cc1ccccc1)ON1C(=O)c2ccccc2C1=O (configuration not stated) | 0% | 70% | 0% |  |  |  | 
CCCC(C)ON1C(=O)c2ccccc2C1=O (configuration not stated) | 0% | 56% | 0% |  |  |  | 
CCOC(=O)C(C)CN1C(=O)c2ccccc2C1=O (configuration not stated) | 0% | 41% | 0% |  |  |  | 
COC(=O)C(C)ON1C(=O)c2ccccc2C1=O (configuration not stated) | 64% |  |  |  |  |  | 
CCCCCCC(ON1C(=O)c2ccccc2C1=O)C(=O)OCC (configuration not stated) | 0% | 72% | 0% |  |  |  | 
CCOC(=O)C(ON1C(=O)c2ccccc2C1=O)c1ccccc1 (configuration not stated) | 0% | 60% | 0% |  |  |  | 
CCOC(=O)C(C)(C)ON1C(=O)c2ccccc2C1=O | 0% | 95% | 60% | 0% |  |  | 
CCOC(=O)C(CC)ON1C(=O)c2ccccc2C1=O (configuration not stated) | 0% | 94% | 80% | 0% |  |  | 
CCOC(=O)C(C)ON1C(=O)c2ccccc2C1=O (racemic) |  |  |  |  | 14% | 33% | 68%
